From US20250353873A1, “COMPOUNDS AND METHODS FOR MODULATING APOE EXPRESSION” (Ionis Pharmaceuticals, Inc., priority 2024, published 2025)
Strand notation (5' to 3'): a small letter for the sugar, then the base; units joined by * are phosphorothioate-linked, units joined directly phosphodiester-linked; [ ] holds rarer units or linkages, { } end groups; capitals alone tell only the bases. e = 2'-O-(2-methoxyethyl) (MOE); k = constrained ethyl (cEt); [5mC] = 5-methylcytosine; d = 2'-deoxy (DNA)

What was measured:
human APOE RNA [1] = test: Activity in APOE C57BL/6NTac-Apoeem7250 knock-in mice, single ICV bolus, 20 weeks (Example 13); type: in vivo; settings: single ICV bolus 300 μg, 20 weeks post treatment, normalized to mouse Ppia
Description: Modified oligonucleotides described above were tested in the APOE C57BL/6NTac-Apoeem7250 knock-in mouse model described above.
APOE C57BL/6NTac-Apoeem7250 knock-in mice were divided into groups of 4 mice each. Each mouse received a single ICV bolus of 300 μg of modified oligonucleotide. A group of 2-4 mice received a single ICV bolus with PBS as a negative control.
Twenty weeks post treatment, mice were sacrificed and RNA was extracted from cortical brain tissue and spinal cord for quantitative real-time RT-PCR analysis of RNA expression of APOE using human primer probe set RTS3073 (described herein above). APOE RNA levels were normalized to mouse Ppia. Mouse Ppia was amplified using primer probe set m_cyclo24 (described herein above). Results are presented as percent human APOE RNA relative to the amount of human APOE RNA in PBS treated animals, (% control). Each experiment is identified in separate tables below.

human APOE RNA [2] = test: Dose-dependent inhibition of human APOE RNA in HepG2 cells, electroporation, 50,000 cells per well, RT-PCR normalized to GAPDH (Example 4, Tables 8-10); type: cell-based; settings: HepG2, electroporation, 16-hour treatment
How it was run: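 Readout is percent APOE RNA versus untreated controls, measured by RT-PCR (primer probe set RTS3073) and normalized to human GAPDH. Modified oligonucleotides were delivered by electroporation at varying doses into HepG2 cells plated at 50,000 per well.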

Row | Substance | APOE RNA (% control) Cortex (human APOE RNA [1]) | APOE RNA (% control) Spinal Cord (human APOE RNA [1]) | APOE RNA (% UTC) (human APOE RNA [2]; 5 nM) | APOE RNA (% UTC) (human APOE RNA [2]; 13 nM) | APOE RNA (% UTC) (human APOE RNA [2]; 33 nM) | APOE RNA (% UTC) (human APOE RNA [2]; 82 nM) | APOE RNA (% UTC) (human APOE RNA [2]; 205 nM) | APOE RNA (% UTC) (human APOE RNA [2]; 512 nM) | APOE RNA (% UTC) (human APOE RNA [2]; 1,280 nM) | APOE RNA (% UTC) (human APOE RNA [2]; 3,200 nM) | APOE RNA (% UTC) (human APOE RNA [2]; 8,000 nM) | APOE RNA (% UTC) (human APOE RNA [2]; 20,000 nM) | IC50 (human APOE RNA [2])
1 | 1757567 (eA*e[5mC]eTeTeG*dG*dT*dG*dA*dA*dT*d[5mC]*dT*dT*dT*kAeTeT*eA*eA; antisense) [Compound 1757567] | 80 % control | 65 % control | 103 % UTC | 108 % UTC | 97 % UTC | 91 % UTC | 95 % UTC | 64 % UTC | 59 % UTC | 37 % UTC | 19 % UTC | 23 % UTC | 1.82 µM
2 | 1757544: mixed MOE/cEt gapmer TTGGTGAATCTTTATTAA, sugar ekeeeddddddddeeeee, linkages soossssssssssooss (eT*kTeGeG*eT*dG*dA*dA*dT*d[5mC]*dT*dT*dT*eAeTeT*eA*eA) [compound 1757544] | 101 % control | 96 % control | 104 % UTC | 86 % UTC | 100 % UTC | 111 % UTC | 90 % UTC | 75 % UTC | 59 % UTC | 42 % UTC | 26 % UTC | 12 % UTC | 2.18 µM
3 | 1757563: mixed MOE/cEt gapmer TTGGTGAATCTTTATTAA, sugar eeeekddddddddkekee, linkages soossssssssssooss (eT*eTeGeG*kT*dG*dA*dA*dT*d[5mC]*dT*dT*dT*kAeTkT*eA*eA) [compound 1757563] | 93 % control | 71 % control | 95 % UTC | 103 % UTC | 84 % UTC | 94 % UTC | 76 % UTC | 67 % UTC | 54 % UTC | 41 % UTC | 17 % UTC | 8 % UTC | 1.38 µM
4 | 1757582 (eT*eTeGkGkT*dG*dA*dA*dT*d[5mC]*dT*dT*dT*dA*dT*eTeAeA*eA*e[5mC]; antisense) [Compound 1757582] | 62 % control | 44 % control | 87 % UTC | 107 % UTC | 72 % UTC | 92 % UTC | 70 % UTC | 64 % UTC | 29 % UTC | 12 % UTC | 37 % UTC | 9 % UTC | 0.71 µM
5 | 1757564: mixed MOE/cEt gapmer TTGGTGAATCTTTATTAA, sugar eeeekddddddddkeeke, linkages soossssssssssooss (eT*eTeGeG*kT*dG*dA*dA*dT*d[5mC]*dT*dT*dT*kAeTeT*kA*eA) [compound 1757564] | 95 % control | 69 % control | 91 % UTC | 86 % UTC | 92 % UTC | 93 % UTC | 82 % UTC | 72 % UTC | 62 % UTC | 39 % UTC | 22 % UTC | 33 % UTC | 2.21 µM
6 | 1757568 (eA*e[5mC]eTeTeG*dG*dT*dG*dA*dA*dT*d[5mC]*dT*dT*dT*kAkTeT*eA*eA; antisense) [Compound 1757568] | 73 % control | 58 % control | 86 % UTC | 87 % UTC | 104 % UTC | 96 % UTC | 93 % UTC | 63 % UTC | 47 % UTC | 31 % UTC | 21 % UTC | 19 % UTC | 1.39 µM
7 | 1757541: mixed MOE/cEt gapmer TTGGTGAATCTTTATTAA, sugar eeeekddddddddeeeee, linkages soossssssssssooss (eT*eTeGeG*kT*dG*dA*dA*dT*d[5mC]*dT*dT*dT*eAeTeT*eA*eA) [compound 1757541] | 88 % control | 80 % control | 104 % UTC | 103 % UTC | 100 % UTC | 99 % UTC | 91 % UTC | 66 % UTC | 60 % UTC | 38 % UTC | 22 % UTC | 8 % UTC | 1.79 µM
8 | 1757556: mixed MOE/cEt gapmer TTGGTGAATCTTTATTAA, sugar eeeeeddddddddekkee, linkages soossssssssssooss (eT*eTeGeG*eT*dG*dA*dA*dT*d[5mC]*dT*dT*dT*eAkTkT*eA*eA) [compound 1757556] | 99 % control | 82 % control | 92 % UTC | 93 % UTC | 98 % UTC | 103 % UTC | 101 % UTC | 65 % UTC | 71 % UTC | 60 % UTC | 35 % UTC | 13 % UTC | 3.53 µM
9 | 1757554: mixed MOE/cEt gapmer TTGGTGAATCTTTATTAA, sugar kkeeeddddddddeeeee, linkages soossssssssssooss (kT*kTeGeG*eT*dG*dA*dA*dT*d[5mC]*dT*dT*dT*eAeTeT*eA*eA) [compound 1757554] | 95 % control | 68 % control | 91 % UTC | 113 % UTC | 101 % UTC | 106 % UTC | 89 % UTC | 71 % UTC | 52 % UTC | 27 % UTC | 28 % UTC | 13 % UTC | 1.57 µM
10 | 1757562: mixed MOE/cEt gapmer TTGGTGAATCTTTATTAA, sugar eeeekddddddddkkeee, linkages soossssssssssooss (eT*eTeGeG*kT*dG*dA*dA*dT*d[5mC]*dT*dT*dT*kAkTeT*eA*eA) [compound 1757562] | 96 % control | 88 % control | 160 % UTC | 86 % UTC | 56 % UTC | 87 % UTC | 52 % UTC | 45 % UTC | 40 % UTC | 29 % UTC | 28 % UTC | 16 % UTC | 0.57 µM
